These results are taken from patent US10765625B2, “Knottin-drug conjugates and methods of using the same” (THE BOARD OF TRUSTEES OF THE LELAND STANFORD JUNIOR …, priority 2016, dated 2020).

Molecules are shown by their SMILES. Where two headings read alike, the source gives them in different places.

Assay [1] relates to U87MG cells. Nature of the assay: Competition binding assay with AF488-labeled EETI-2.5F (AF488-1), flow cytometry. To be noted: competition with 1 nM AF488-1, 4° C., 3 hours, read-out: IC50 (nM), binding affinity. The protocol: Once the knottin-drug conjugates 5a-d were prepared, their binding affinity to U87MG glioblastoma cells, which are known to have elevated expression of tumor-associated integrins, was tested. […] To measure the relative binding affinities of knottins 1 and 2 and KDCs 5a-d, competition binding assays were performed using AlexaFluor 488-conjugated EETI-2.5F (AF488-1) as previously described (J. W. Kim, et al., J. Am. Chem. Soc. 2015, 137, 6-9). Cells (5×10^4 per sample) were detached with 0.05% Trypsin-EDTA, washed with IBB (25 mM Tris pH 7.4, 150 mM NaCl, 2 mM CaCl2, 1 mM MgCl2, 1 mM MnCl2, and 0.1% bovine serum albumin), and incubated with 1 nM AF488-1 and varying concentrations of competitors in 800 μL of IBB at 4° C. for 3 hours. The cells were washed twice with 800 μL of PBSA (phosphate buffered saline containing 0.1% bovine serum albumin) and the fluorescence of the surface-bound AF488-1 was determined using flow cytometry. The fluorescence was normalized to that of cells treated with AF488-1 alone to obtain the fraction bound. Half-maximal inhibitory concentration (IC50) values were determined by nonlinear regression analysis. Error bars represent the standard deviation of experiments performed in triplicate.

In assay [2] the test system is U87MG cells. As to the kind of experiment: Cell proliferation, CCK-8 colorimetric assay. The format is cell-based. The procedure: U87MG, and PANC-1 cells were grown in Dulbecco's Modified Eagle Medium (DMEM) with 10% fetal bovine serum (FBS) and 1% penicillin/streptomycin. MDA-MB-468 cells were grown in DMEM and Ham's F-12 medium (DMEM/F12) with 10% FBS and 1% penicillin/streptomycin. A2780 and BxPC3 cells were grown in Roswell Park Memorial Institute medium (RPMI) 1640+L-glutamine, with 10% FBS and 1% penicillin/streptomycin. D270 cells were grown in MEM (Richter's modification, no phenol red) with 10% FBS and 0.1% Gentamicin. Unless otherwise specified, cells were incubated at 37° C., 5% CO2. Flow cytometry was performed using an EMD Millpore Guava EasyCyte 8HT flow cytometer and the resulting data were evaluated using FlowJo software provided by TreeStar, Inc. Cell proliferation was measured using the Dojindo Cell Counting Kit-8 by replacing the media in each well with 100 μL of media containing 10% WST-8. After incubation for 1 h at 37° C., absorbance, A, at 450 nm was measured with a BioTek Synergy H4 microtiter plate reader. The background signal of CCK-8 alone was subtracted from all samples. Cell proliferation was then expressed as a percentage of absorbance relative to the control of untreated cells (Equation 2). Nonlinear regression analysis was performed using GraphPad Prism.
Next, the potency of each KDC was tested in a cell-proliferation experiment. […] Cells were seeded in a 96-well plate at a density of 2,500 cells per well and grown overnight at 37° C., 5% CO2 in DMEM with 10% FBS and 1% penicillin/streptomycin. Cells were subsequently treated with 100 μL of fresh media, containing varying concentrations of drug, protein, or protein-drug conjugate and incubated for 4 d at 37° C., 5% CO2. Cell proliferation was measured according to the method described in Section 1.3. Error bars represent the standard deviation of experiments performed in triplicate. […] Given that the linker must be cleaved to release free Gemcitabine in order for the payload to become active, the low potency of 5b can be explained by the greater stability of the carbamate group as compared to the other linkers tested.
(Formazan colour is commonly taken as a measure of viable cells.)

Take `CC(C)C[C@@H]1NC(=O)[C@@H]2CSSC[C@@H](C(=O)NCC(=O)O)NC(=O)[C@H](Cc3ccccc3)NC(=O)CNC(=O)[C@H](CC(N)=O)NC(=O)[C@@H]3CCCN3C(=O)CNC(=O)[C@@H]3CSSC[C@H](NC(=O)[C@H]([C@@H](C)O)NC(=O)[C@H](CC(C)C)NC(=O)[C@@H]4CCCN4C(=O)[C@@H]4CCCN4C(=O)[C@H](CC(N)=O)NC(=O)[C@H](CC(=O)O)NC(=O)CNC(=O)[C@H](CCCNC(=N)N)NC(=O)[C@@H]4CCCN4C(=O)[C@H](CCCNC(=N)N)NC(=O)[C@@H]4CCCN4C(=O)[C@@H](NC(=O)CN)CSSC[C@H](NC(=O)CNC(=O)[C@H](C)NC1=O)C(=O)N[C@@H](C(C)C)C(=O)N3)C(=O)N[C@@H](CCCn1cc(CCC(=O)N[C@H](C(=O)N[C@@H](C)C(=O)Nc3ccc(COC(=O)Nc4ccn([C@@H]5O[C@H](CO)[C@@H](O)C5(F)F)c(=O)n4)cc3)C(C)C)nn1)C(=O)N[C@@H](CCC(N)=O)C(=O)N[C@@H](CC(=O)O)C(=O)N[C@@H](CO)C(=O)N[C@@H](CC(=O)O)C(=O)N2` [5d]: the IC50 in the assay with U87MG cells [1] came to 1.5 ± 0.2 nM. For the same compound, the “Potency / growth inhibition in U87MG cells (in words)” value in the assay with U87MG cells [2] (U87MG cells, 4 d) is given as “low-nanomolar ED50 values”. The EC50 in the assay on U87MG cells [2] (U87MG cells, 4 d incubation, vs untreated control, read-out: ED50 (nM), potency) was found to be 9 ± 1.8 nM; in the assay on U87MG cells [2] (U87MG glioblastoma, 4 d after treatment, read-out: ED50 (nM), cell growth inhibition) it was 9 ± 1.8 nM.

For orientation: IC50 means the concentration that gives 50% inhibition.
